Earlier results on 1 compound are cited in US20160303203A1, “COMPOSITIONS AND METHODS FOR THE TREATMENT OF WOUNDS” (priority 2013, published 2016).

For this data set, the system named is diabetic ulcers. The settings on record: patients with diabetic ulcers treated with phenytoin; control group 45 days.

`O=C1NC(=O)C(c2ccccc2)(c2ccccc2)N1` [phenytoin, 5.5-diphenyl-2,4-imidazolidinedione]: the mean healing time is reported as 21 days.
